Data taken from patent US20220259172A1, “CHEMICAL INHIBITORS OF ID PROTEINS FOR THE TREATMENT OF CANCER AND OTHER DISEASES” (Universität Heidelberg, priority 2019, published 2022).
Entries after “also recorded” stand apart in the source; their conditions may differ.

Legend:
Id1 [1] = test: Id1 expression in LECs, Western blot; assay type: cell-based; conditions: indicated concentrations, 24 hours (FIG. 10B)
Experimental: Human umbilical vein endothelial cells (HUVECs) and lymphatic endothelial cells (LECs) were cultivated in EBM™-2 Endothelial Cell Growth Basal Medium supplemented with EGM™-2 MV Microvascular Endothelial Cell Growth Medium-2 SingleQuots™ Kit (both Lonza, catalogue numbers CC-3156 and CC4176, respectively), hereafter referred to as endothelial cell growth medium. HUVECs and LECs were cultivated in the presence of the indicated concentrations of X6632, or with DMSO as a solvent control. After 24 hours, cells were harvested. Lysates were western blotted and probed with antibodies against Id1 and Id3. Western blots probed with vinculin antibodies served as loading controls.
(§1) Western blot analysis was performed using standard methods. The following antibodies were used for protein detection: Id1 (195-14, CalBioreagents), Id3 (17-3, CalBioreagents), β-actin (AC-15, Sigma Aldrich), Vinculin (VIN-11-5, Sigma Aldrich). Protein bands were detected using HRP conjugated secondary antibodies (P0447, P0448, Agilent Technologies) and enhanced chemiluminescence (32106, Thermo Fisher Scientific).
The effect of X6632 on Id1 and Id3 expression in cultivated proliferating human umbilical vein endothelial cells (HUVECs) was investigated. […] LDN-193189, an antagonist of BMP receptor isotypes ALK2 and ALK3, served as a positive control reference for inhibition of Id1 and Id3 expression.

B16-F10 melanoma cells = test: Tumor growth and initiation in vivo, B16-F10; set-up: species or system mice
Text: B16-F10 (A) or Ret (B) cells were co-injected with Matrigel into syngeneic mice. […] Numbers indicate the number of animals with a tumor in each group. Bar graphs show the mean tumor volume in each group at the day when the first animal had reached the legal tumor size limit. Kaplan-Meier curves show the percentage of tumor-free animals in percent as a measure for tumor initiation.
Cells were harvested using trypsin/EDTA and washed in PBS. The indicated numbers of living melanoma cells were subcutaneously injected into the flank of syngeneic mice in 100 μl PBS. For co-injection experiments, the indicated number of living cells was resuspended in 100 μl Matrigel HC (10 mg/ml, #354262, Corning Inc.), and subcutaneously injected into the flank. Tumor volume was calculated using the formula 4/3π (d1/2×d2/2×d3/2), where d1−d3 represents the diameter of the tumor in three dimensions. […] All animal experiments were approved by the local authorities, and performed according to the German legal requirements. Tumor initiating cell (TIC) frequency and p-values were calculated using ELDA software.
To investigate the anti-tumor properties of the selected Id1/Id3-inhibiting compounds, groups of experimental mice (8 per group) were injected subcutaneously with B16-F10 or Ret melanoma cells. […] Melanoma initiation and growth was assessed over a period of 90 days.

LEC spheroids = test: Sprouting from LEC spheroids in collagen; assay type: cell-based; conditions: X6632 10 μM; 50 ng/ml hVEGF-A; 24 h; collagen type I
Experimental: HUVECs or LECs were resuspended in endothelial cell growth medium containing 20% methylcellulose at 1.6×10^4 cells per millilitre. Twenty-five microliters of cell suspension were pipetted as drops on non-adherent plastic plates, which were then inverted to form hanging drop cultures. Plates were incubated for 24 h at 37° C. Spheroids were harvested, then embedded in collagen type I (2 mg/ml) containing 0.5% methylcellulose. After polymerization, gels were cultivated with endothelial cell growth medium containing 50 ng/ml hVEGF-A in the presence or absence of X6632 (10 μM), or DMSO as a solvent control. Sprouting was assessed after cultivation for 24 h using microscope-based image acquisition. Representative images are shown.
To determine whether this is the case, the impact of […] on angiogenic and lymphangiogenic sprouting from endothelial cell spheriods was investigated. To this end, HUVECs and LECs were grown as spheriods in hanging drop cultures. The spheroids were then embedded in collagen. Sprouting from the spheroids in the presence and absence of X6632 was monitored using microscope-based image analysis.

Id1 [2] = test: Compound screen: BMP4-induced Id1 expression, Western blot; assay type: cell-based, murine; conditions: B16-F10 and Ret cells, BMP4 10 ng/ml and compound simultaneously, 24 h, rated relative to CBD
Experimental: To screen compounds with an inhibitory effect on Id1 and Id3 expression, cells were simultaneously stimulated with BMP4 (10 ng/ml, 315-27, Peprotech) and substances at the indicated concentrations for 24 h. DMSO served as a solvent control. Effects on Id1 and Id3 expression levels were analysed by Western blotting.
as §1
B16-F10 and Ret melanoma cells were treated with BMP4 to induce Id1 and Id3 expression, and simultaneously treated with each of the compounds individually for a 24 h period.

HUVECs = test: HUVEC proliferation, CyQUANT assay; assay type: cell-based, Human; conditions: dose-dependent manner (FIG. 11)
Experimental: HUVECs (A) and LECs (B) were cultivated in endothelial cell growth medium. Cells were incubated with the indicated concentrations of X6632. Incubation with DMSO served as a solvent control. After cultivation for the indicated time periods, cells were stained with a CyQUANT™ Cell Proliferation Assay Kit (Thermo Fisher Scientific). The CyQUANT™ dye emits fluorescence after excitation at 485 nm when incorporated in double-stranded DNA, allowing DNA content to be used as a measure of cell numbers. Plates were incubated for 15 min at 37° C. to allow the CyQUANT™ dye to incorporate into DNA. Fluorescence was measured by excitation at 485 nm and detection of emission at 530 nm at 25 positions in each well (signal intensity) using a Tecan Infinite M200 reader.

`CCCCc1cc2c(O)cc(C3(CCCC)CCCCC3)cc2oc1=O` [X6632, 7-(1-Butylcyclohexyl)-5-hydroxy-3-butyl-2H-chromen-2-one] was tested, and the “Expression of Id1 protein” value (Id1 [1]) was “inhibits”, the “Melanoma growth and initiation” value (B16-F10 melanoma cells; B16-F10 cells co-injected with Matrigel, syngeneic mice, daily i.p. first 14 days, compared to DMSO) was “significantly inhibit; also recorded: potent inhibitors” and the “Number of animals with tumors” value (B16-F10 melanoma cells; B16-F10 cells, 8 mice per group, assessed over 90 days) was “three”. The “Tumor growth and initiation compared to CBD” value (B16-F10 melanoma cells; B16-F10 experiment, daily i.p. first 14 days) was “significantly more effective”, the “Sprouting from LEC spheroids” value (LEC spheroids) was “substantially inhibited” and the “Inhibitory effect on Id1 protein expression” value (Id1 [2]) was “more potent”. The “Inhibitory effect on Id1 protein expression” value (Id1 [2]; listed as X 6632) was “strongest inhibitory activities” and the “Proliferation of HUVECs” value (HUVECs) was “inhibited”.
